Experimental data as given in patent US12281149B2, “Modulators of G-protein coupled receptors” (priority 2021, dated 2025).
*1 amine or outer side, *2 acyl side, *3 side chain or, on linkers, in order; H or OH if unused. Where a SMILES comes first, the peptide text is derived from it. Side-chain parts run from the residue outwards. [ ]: non-standard residue; d: D form. The star is where a group is joined. Isobutyryl(2-(3-CN-5-F-Ph)) = CC(C)(C(=O)*)c1cc(F)cc(C#N)c1; C20 diacid = O=C(O)CCCCCCCCCCCCCCCCCCC(=O)*; γGlu = O=C(O)[C@H](CCC(=O)[*:2])N[*:1]; X81 = CCC(CC)(C(=O)*)c1cc(F)cc(C#N)c1; X53 = CC(C)(C(=O)*)c1cc(F)cc(F)c1; X72 = CC(C)(C(=O)*)c1cccc(Cl)c1F; X1 = CC(C)(C(=O)*)c1cccnc1; AEEA = NCCOCCOCC(=O)O; Aib = CC(C)(N)C(=O)O; βAla = NCCC(=O)O

Tests used:
Assay type in all cases: cell-based
GLP-1 receptor [1] = target: T1, GLP-1 receptor (Homo sapiens, UniProt P43220); assay: HitHunter cAMP assay, GLP-1 receptor; conditions: for EC50: CHO cells stably expressing human GLP-1 receptor, cAMP accumulation, 30 min, read-out: EC50 GLP-1R; for Emax: CHO cells, cAMP, normalized to maximum signal from GLP-1 (high) and DMSO (low), read-out: Emax GLP-1R
GIP receptor [2] = target: T2, GIP receptor (Homo sapiens, UniProt P48546); assay: HitHunter cAMP assay, GIP receptor; conditions: for EC50: CHO cells stably expressing GIP receptor, cAMP accumulation, 30 min, read-out: EC50 GIP-1R; for Emax: CHO cells, cAMP, normalized to maximum signal from GIP (high) and DMSO (low), read-out: Emax GIP-1R
T2 sequence (P48546 22-466): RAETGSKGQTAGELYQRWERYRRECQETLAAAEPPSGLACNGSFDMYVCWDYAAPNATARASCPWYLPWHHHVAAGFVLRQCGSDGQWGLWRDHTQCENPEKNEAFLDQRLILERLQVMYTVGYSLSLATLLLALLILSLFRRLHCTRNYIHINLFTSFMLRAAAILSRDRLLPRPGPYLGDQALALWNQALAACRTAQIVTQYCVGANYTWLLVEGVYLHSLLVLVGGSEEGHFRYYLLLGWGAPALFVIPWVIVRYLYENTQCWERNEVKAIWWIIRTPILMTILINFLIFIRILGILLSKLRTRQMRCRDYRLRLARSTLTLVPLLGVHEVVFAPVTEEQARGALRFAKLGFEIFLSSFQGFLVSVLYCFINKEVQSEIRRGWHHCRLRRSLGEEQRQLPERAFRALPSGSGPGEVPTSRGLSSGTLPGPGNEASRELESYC

GIP receptor [3] = target: T2, GIP receptor; assay: PathHunter β-arrestin assay, GIP receptor; parameters: host or cells: PathHunter CHO-K1 GIPR β-Arrestin Cell Line; conditions: β-arrestin-2 recruitment, PathHunter CHO-K1 GIPR β-Arrestin Cell Line, 90 min at 37° C.; normalized to GIP; read-out: GIPR β Arrestin EC50
GLP-1 receptor [4] = target: T1, GLP-1 receptor; assay: PathHunter β-arrestin assay, GLP-1 receptor; parameters: host or cells: PathHunter CHO-K1 GLP1R β-Arrestin Cell Line; conditions: β-arrestin-2 recruitment, PathHunter CHO-K1 GLP1R β-Arrestin Cell Line, 90 min at 37° C.; normalized to GLP-1; read-out: GLP-1R β Arrestin EC50

T1 sequence (P43220 24-463): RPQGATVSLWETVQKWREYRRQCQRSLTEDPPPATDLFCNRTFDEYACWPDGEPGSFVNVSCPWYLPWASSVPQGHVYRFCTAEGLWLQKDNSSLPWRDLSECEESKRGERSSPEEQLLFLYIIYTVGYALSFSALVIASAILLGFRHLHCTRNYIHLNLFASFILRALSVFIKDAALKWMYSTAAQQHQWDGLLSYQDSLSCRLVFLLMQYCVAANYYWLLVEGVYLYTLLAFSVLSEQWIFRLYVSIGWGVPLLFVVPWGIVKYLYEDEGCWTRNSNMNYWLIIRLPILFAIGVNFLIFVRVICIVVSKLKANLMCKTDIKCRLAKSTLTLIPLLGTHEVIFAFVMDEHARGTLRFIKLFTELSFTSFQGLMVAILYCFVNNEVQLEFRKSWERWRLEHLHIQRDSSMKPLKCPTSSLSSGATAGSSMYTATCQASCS

CC[C@H](C)[C@H](NC(=O)[C@H](CC(C)C)NC(=O)[C@H](Cc1c[nH]c2ccccc12)NC(=O)[C@H](CCC(N)=O)NC(=O)[C@@H](NC(=O)[C@H](Cc1ccccc1)NC(=O)[C@H](C)NC(=O)[C@H](CCCCNC(=O)COCCOCCNC(=O)COCCOCCNC(=O)CC[C@H](NC(=O)CCCCCCCCCCCCCCCCCCC(=O)O)C(=O)O)NC(=O)[C@H](CCC(N)=O)NC(=O)[C@H](C)NC(=O)[C@@H](NC(=O)[C@H](CCCCN)NC(=O)[C@H](CC(=O)O)NC(=O)[C@H](CC(C)C)NC(=O)C(C)(C)NC(=O)[C@@H](NC(=O)[C@H](CO)NC(=O)[C@H](Cc1ccc(O)cc1)NC(=O)[C@H](CC(=O)O)NC(=O)[C@H](CO)NC(=O)[C@@H](NC(=O)[C@H](Cc1ccccc1)NC(=O)[C@@H](NC(=O)CNC(=O)[C@H](CCC(=O)O)NC(=O)CCNC(=O)C(C)(C)c1cccnc1)[C@@H](C)O)[C@@H](C)O)[C@@H](C)CC)[C@@H](C)CC)C(C)C)C(=O)N[C@@H](C)C(=O)NCC(=O)NCC(=O)N1CCC[C@H]1C(=O)N[C@@H](CO)C(=O)N[C@@H](CO)C(=O)NCC(=O)N[C@@H](C)C(=O)N1CCC[C@H]1C(=O)N1CCC[C@H]1C(=O)N1CCC[C@H]1C(=O)N[C@@H](CO)C(N)=O [Compound 239] ({X1-βAla}-EGTFTSDYSI[Aib]LDKIAQK([AEEA-AEEA-γGlu-C20 diacid])AFVQWLIAGGPSSGAPPPS-NH2)
EC50 (GLP-1 receptor [1]): < 0.1 nM
Emax (GLP-1 receptor [1]): 91%
EC50 (GIP receptor [2]): 1 to 10 nM
Emax (GIP receptor [2]): 99%
EC50 (GIP receptor [3]): > 1000 nM
EC50 (GLP-1 receptor [4]): < 1000 nM

CC[C@H](C)[C@H](NC(=O)[C@H](CC(C)C)NC(=O)[C@H](Cc1c[nH]c2ccccc12)NC(=O)[C@H](CCC(N)=O)NC(=O)[C@@H](NC(=O)[C@H](Cc1ccccc1)NC(=O)[C@H](C)NC(=O)[C@H](CCCCNC(=O)COCCOCCNC(=O)COCCOCCNC(=O)CC[C@H](NC(=O)CCCCCCCCCCCCCCCCCCC(=O)O)C(=O)O)NC(=O)[C@H](CCC(N)=O)NC(=O)[C@H](C)NC(=O)[C@@H](NC(=O)[C@H](CCCCN)NC(=O)[C@H](CC(=O)O)NC(=O)[C@H](CC(C)C)NC(=O)C(C)(C)NC(=O)[C@@H](NC(=O)[C@H](CO)NC(=O)[C@H](Cc1ccc(O)cc1)NC(=O)[C@H](CC(=O)O)NC(=O)[C@H](CO)NC(=O)[C@@H](NC(=O)[C@H](Cc1ccccc1)NC(=O)[C@@H](NC(=O)CNC(=O)[C@H](CCC(=O)O)NC(=O)CCNC(=O)C(C)(C)c1cccc(Cl)c1F)[C@@H](C)O)[C@@H](C)O)[C@@H](C)CC)[C@@H](C)CC)C(C)C)C(=O)N[C@@H](C)C(=O)NCC(=O)NCC(=O)N1CCC[C@H]1C(=O)N[C@@H](CO)C(=O)N[C@@H](CO)C(=O)NCC(=O)N[C@@H](C)C(=O)N1CCC[C@H]1C(=O)N1CCC[C@H]1C(=O)N1CCC[C@H]1C(=O)N[C@@H](CO)C(N)=O [Compound 219] ({X72-βAla}-EGTFTSDYSI[Aib]LDKIAQK([AEEA-AEEA-γGlu-C20 diacid])AFVQWLIAGGPSSGAPPPS-NH2)
EC50 (GLP-1 receptor [1]): < 0.1 nM
Emax (GLP-1 receptor [1]): 104%
EC50 (GIP receptor [2]): 0.1 to 1 nM
Emax (GIP receptor [2]): 106%
EC50 (GIP receptor [3]): < 1000 nM
EC50 (GLP-1 receptor [4]): > 1000 nM

CC[C@H](C)[C@H](NC(=O)[C@H](CC(C)C)NC(=O)[C@H](Cc1c[nH]c2ccccc12)NC(=O)[C@H](CCC(N)=O)NC(=O)[C@@H](NC(=O)[C@H](Cc1ccccc1)NC(=O)[C@H](C)NC(=O)[C@H](CCCCNC(=O)COCCOCCNC(=O)COCCOCCNC(=O)CC[C@H](NC(=O)CCCCCCCCCCCCCCCCCCC(=O)O)C(=O)O)NC(=O)[C@H](CCC(N)=O)NC(=O)[C@H](C)NC(=O)[C@@H](NC(=O)[C@H](CCCCN)NC(=O)[C@H](CC(=O)O)NC(=O)[C@H](CC(C)C)NC(=O)C(C)(C)NC(=O)[C@@H](NC(=O)[C@H](CO)NC(=O)[C@H](Cc1ccc(O)cc1)NC(=O)[C@H](CC(=O)O)NC(=O)[C@H](CO)NC(=O)[C@@H](NC(=O)[C@H](Cc1ccccc1)NC(=O)[C@@H](NC(=O)CNC(=O)[C@H](CCC(=O)O)NC(=O)CCNC(=O)C(C)(C)c1cc(F)cc(F)c1)[C@@H](C)O)[C@@H](C)O)[C@@H](C)CC)[C@@H](C)CC)C(C)C)C(=O)N[C@@H](C)C(=O)NCC(=O)NCC(=O)N1CCC[C@H]1C(=O)N[C@@H](CO)C(=O)N[C@@H](CO)C(=O)NCC(=O)N[C@@H](C)C(=O)N1CCC[C@H]1C(=O)N1CCC[C@H]1C(=O)N1CCC[C@H]1C(=O)N[C@@H](CO)C(N)=O [Compound 173] ({X53-βAla}-EGTFTSDYSI[Aib]LDKIAQK([AEEA-AEEA-γGlu-C20 diacid])AFVQWLIAGGPSSGAPPPS-NH2)
EC50 (GLP-1 receptor [1]): < 0.1 nM
Emax (GLP-1 receptor [1]): 98%
EC50 (GIP receptor [2]): 1 to 10 nM
Emax (GIP receptor [2]): 103%
EC50 (GIP receptor [3]): > 1000 nM
EC50 (GLP-1 receptor [4]): > 1000 nM

CC[C@H](C)[C@H](NC(=O)[C@H](CC(C)C)NC(=O)[C@H](Cc1c[nH]c2ccccc12)NC(=O)[C@H](CCC(N)=O)NC(=O)[C@@H](NC(=O)[C@H](Cc1ccccc1)NC(=O)[C@H](C)NC(=O)[C@H](CCCCNC(=O)COCCOCCNC(=O)COCCOCCNC(=O)CC[C@H](NC(=O)CCCCCCCCCCCCCCCCCCC(=O)O)C(=O)O)NC(=O)[C@H](CCC(N)=O)NC(=O)[C@H](C)NC(=O)[C@@H](NC(=O)[C@H](CCCCN)NC(=O)[C@H](CC(=O)O)NC(=O)[C@H](CC(C)C)NC(=O)C(C)(C)NC(=O)[C@@H](NC(=O)[C@H](CO)NC(=O)[C@H](Cc1ccc(O)cc1)NC(=O)[C@H](CC(=O)O)NC(=O)[C@H](CO)NC(=O)[C@@H](NC(=O)[C@H](Cc1ccccc1)NC(=O)[C@@H](NC(=O)CNC(=O)CC[C@H](NC(=O)CCNC(=O)C(C)(C)c1cc(F)cc(C#N)c1)C(=O)O)[C@@H](C)O)[C@@H](C)O)[C@@H](C)CC)[C@@H](C)CC)C(C)C)C(=O)N[C@@H](C)C(=O)NCC(=O)NCC(=O)N1CCC[C@H]1C(=O)N[C@@H](CO)C(=O)N[C@@H](CO)C(=O)NCC(=O)N[C@@H](C)C(=O)N1CCC[C@H]1C(=O)N1CCC[C@H]1C(=O)N1CCC[C@H]1C(=O)N[C@@H](CO)C(N)=O [Compound 110] ({Isobutyryl(2-(3-CN-5-F-Ph))-βAla-γGlu}-GTFTSDYSI[Aib]LDKIAQK([AEEA-AEEA-γGlu-C20 diacid])AFVQWLIAGGPSSGAPPPS-NH2)
EC50 (GLP-1 receptor [1]): 100 to 1000 nM
Emax (GLP-1 receptor [1]): 31%
EC50 (GIP receptor [2]): 100 to 1000 nM
Emax (GIP receptor [2]): 32%
EC50 (GIP receptor [3]): > 1000 nM
EC50 (GLP-1 receptor [4]): > 1000 nM

CC[C@H](C)[C@H](NC(=O)[C@H](CC(C)C)NC(=O)[C@H](Cc1c[nH]c2ccccc12)NC(=O)[C@H](CCC(N)=O)NC(=O)[C@@H](NC(=O)[C@H](Cc1ccccc1)NC(=O)[C@H](C)NC(=O)[C@H](CCCCNC(=O)COCCOCCNC(=O)COCCOCCNC(=O)CC[C@H](NC(=O)CCCCCCCCCCCCCCCCCCC(=O)O)C(=O)O)NC(=O)[C@H](CCC(N)=O)NC(=O)[C@H](C)NC(=O)[C@@H](NC(=O)[C@H](CCCCN)NC(=O)[C@H](CC(=O)O)NC(=O)[C@H](CC(C)C)NC(=O)C(C)(C)NC(=O)[C@@H](NC(=O)[C@H](CO)NC(=O)[C@H](Cc1ccc(O)cc1)NC(=O)[C@H](CC(=O)O)NC(=O)[C@H](CO)NC(=O)[C@@H](NC(=O)[C@H](Cc1ccccc1)NC(=O)[C@@H](NC(=O)CNC(=O)[C@H](CCC(=O)O)NC(=O)CCNC(=O)C(CC)(CC)c1cc(F)cc(C#N)c1)[C@@H](C)O)[C@@H](C)O)[C@@H](C)CC)[C@@H](C)CC)C(C)C)C(=O)N[C@@H](C)C(=O)NCC(=O)NCC(=O)N1CCC[C@H]1C(=O)N[C@@H](CO)C(=O)N[C@@H](CO)C(=O)NCC(=O)N[C@@H](C)C(=O)N1CCC[C@H]1C(=O)N1CCC[C@H]1C(=O)N1CCC[C@H]1C(=O)N[C@@H](CO)C(N)=O [Compound 162] ({X81-βAla}-EGTFTSDYSI[Aib]LDKIAQK([AEEA-AEEA-γGlu-C20 diacid])AFVQWLIAGGPSSGAPPPS-NH2)
EC50 (GLP-1 receptor [1]): 1 to 10 nM
Emax (GLP-1 receptor [1]): 127%
EC50 (GIP receptor [2]): 1 to 10 nM
Emax (GIP receptor [2]): 113%
EC50 (GIP receptor [3]): < 1000 nM
EC50 (GLP-1 receptor [4]): > 1000 nM
